In general, IC50 refers to the concentration at which inhibition is half-maximal. For orientation: bioavailability means dose-corrected exposure relative to a reference, in per cent. Read a low bioavailability as little systemic uptake. Usually AUC stands for concentration integrated over time. A higher AUC goes with more exposure. One may read the Cmax as the highest concentration seen after dosing. The term Tmax denotes the time at which the peak concentration occurs.

Read-outs that look alike come from different tables or passages of the source.

Experimental findings from US20220267356A1, “ARGINASE INHIBITORS AND METHODS OF USE THEREOF” (AstraZeneca AB, priority 2019, published 2022) are described below.

Series [1] is described as follows: Bioavailability / pharmacokinetic study in male rats (IV and PO). The format is in vivo. As to conditions: rat; for Vd: read-out: Vdss; for bioavailability: 5 mg/kg, pro-drug when dosed as pro-drug, PO vs IV; for AUC / Cmax / Tmax: PO 5 mg/kg. On the procedure:
Example 14 is a prodrug form of Example 1. Examples 19 to 22 and 24 to 26 are prodrugs of example 18. […] Example 19 was formulated in 0.9% w/v saline pH 4 (adjusted with 1 M HCl) for IV dosing. The formulation was dosed at 2 mg/kg by femoral catheter to two male rats each (170-250 g). Jugular vein catheter serial blood samples were taken at 0.033, 0.083, 0.167, 0.5, 1, 2, 4, 8, and 24 hrs post-dose. For PO dosing, Example 19 was formulated in deionized water pH 4 (adjusted with 1 M HCl) and dosed at 5 mg/kg by oral gavage to two male rats each (170-250 g). Serial blood samples were taken by jugular vein catheter at 0.25, 0.5, 1, 1.5, 2, 3, 4, 8, and 24 hrs post dose. Plasma samples were generated from blood using low speed centrifugation. A single set of calibration standards containing Example 18 and Example 19 were prepared by spiking blank plasma. The samples and standards were extracted by precipitation with two volumes of acetonitrile followed by centrifugation. The results obtained were used to determine the Cl (mL/min/kg), Vdss (L/kg), Cmax (μM), AUC (μM h), tmax (h), and % F for both Example 18 and Example 19. Absolute bioavailability was determined by comparing the PO dose normalized AUC of Example 18 when dosed as Example 19, versus the dose normalized IV AUC of Example 18 when dosed as Example 18. Where appropriate, measured, not nominal, doses were used in the calculation. In an analogous fashion, the same procedure was repeated for Examples 14, 20 to 22, and 24 to 26.

The target of series [2] is T1, Human Arginase 1 (Homo sapiens, UniProt P05089).
T1 construct: made in house; host or cells: E. coli
T1 sequence (P05089 1-322): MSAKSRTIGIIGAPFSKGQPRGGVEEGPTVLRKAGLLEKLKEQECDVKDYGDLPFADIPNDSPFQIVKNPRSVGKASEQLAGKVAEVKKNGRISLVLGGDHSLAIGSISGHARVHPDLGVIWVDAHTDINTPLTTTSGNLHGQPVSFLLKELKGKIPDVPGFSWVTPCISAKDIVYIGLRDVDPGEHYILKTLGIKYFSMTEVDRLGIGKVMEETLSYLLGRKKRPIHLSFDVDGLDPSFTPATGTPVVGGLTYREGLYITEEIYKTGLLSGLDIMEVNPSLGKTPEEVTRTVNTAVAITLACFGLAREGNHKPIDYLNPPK
The series is described as follows: Human Arginase 1 enzyme inhibition (thioarginine/DTNB absorbance at 412 nm). As to conditions: recombinant enzyme 5 nM, 60 min, room temperature. The format is biochemical. From the text: (§1) The inhibitory effects of Examples 1-26 on the activity of Human Arginase 1 and Arginase 2 activity were quantified by measuring the formation of the thiol group from thioarginine using recombinant Arginase 1 or Arginase 2 produced from E. coli. The thiol group was detected with Ellman's reagent, 5,5′-dithiobis(2-nitrobenzoic acid) (DTNB). DTNB reacts with the thiol to give the mixed disulfide and 2-nitro-5-thiobenzoic acid (TNB) which is quantified by the absorbance of the anion (TNB^2−) at 412 nm.
(§2) The assays were run in clear 384 well plates (Greiner cat no: 781101). Various concentrations of Examples 1-26 in 300 nL DMSO were dispensed to assay plates using an Echo acoustic dispenser immediately followed by plate sealing and centrifugation. Two pre-mixes were prepared from reagents thawed immediately before addition to assay plates. Pre-mix one comprised human Arginase 1 or human Arginase 2, at a final concentration of 5 nM and 0.5 mM DTNB in assay buffer, 45 mM HEPES pH7.5, brij 35, 0.045% (w/v) and 100 μM MnCl2. Pre-mix two comprised freshly thawed 0.5 mM thioarginine in assay buffer. Fifteen microlitres of pre-mix one was dispensed to assay plates containing Examples 1-9, centrifuged and incubated for 30 minutes at room temperature prior to adding fifteen microlitres of pre-mix two.
(§3) Assay plates were centrifuged prior to reading absorbance at 412 nm in a Pherastar multi-mode plate reader to collect data at time point 0 (T0). The plates were incubated at room temperature for 60 min prior to reading again to collect data at time point 1 (T1). Data is derived by subtracting the A412 signal measured at T0 (time point 0) from that measured at T1 (time point 1). The data was transformed to % effect using the equation:
(§4) Compound % effect=100*[(X−min)/(max−min)],
(§5) where X represents the normalized value for the compound based on the Min (vehicle) and Max (reference compound) inhibition control.
(§6) The concentration of Examples 1-26 that inhibited the activity by 50% (i.e.the IC50) was calculated by plotting the % effect versus test compound concentration and fitting the data using the Genedata Screener Smart fit algorithm.

The target of series [3] is T2, Human Arginase 2 (Homo sapiens, UniProt P78540).
T2 construct: made in house; host or cells: E. coli
T2 sequence (P78540 23-354): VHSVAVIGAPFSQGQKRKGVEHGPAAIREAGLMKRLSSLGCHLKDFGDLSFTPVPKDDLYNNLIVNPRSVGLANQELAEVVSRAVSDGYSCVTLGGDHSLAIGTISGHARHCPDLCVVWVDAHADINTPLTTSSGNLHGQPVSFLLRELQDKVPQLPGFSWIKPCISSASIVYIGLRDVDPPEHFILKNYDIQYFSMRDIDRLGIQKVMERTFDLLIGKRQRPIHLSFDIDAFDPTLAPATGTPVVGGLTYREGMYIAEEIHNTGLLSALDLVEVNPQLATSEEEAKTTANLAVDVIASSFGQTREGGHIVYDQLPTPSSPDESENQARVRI
The series is described as follows: Human Arginase 2 enzyme inhibition (thioarginine/DTNB absorbance at 412 nm). The conditions noted are these: recombinant enzyme 5 nM, 60 min, room temperature. It counts as biochemical.
Excerpt: as §1, §2, §3, §4, §5, §6

[4] abbreviates: plasma, payload when dosed as payload, IV.
Setting [5] is: pro-drug in plasma when dosed as pro-drug, IV 2 mg/kg.
[6] abbreviates: pro-drug in plasma when dosed as pro-drug.

On to `NC[C@@H](CCCB(O)O)[C@H](N)C(=O)O` [Example 1, (2S,3R)-2-amino-3-(aminomethyl)-6-boronohexanoic acid], for which, in series [1] (setting [4]), the clearance worked out at 8.26 mL/min/kg and the Vd turned out to be 0.46 L/kg. Moreover, the IC50 in series [2] came to 39 nM. Further, the IC50 in series [3] turned out to be 81 nM.

`NCC(=O)NC[C@H](CCCB(O)O)[C@H](N)C(=O)O` [Example 24, (2S,3S)-2-amino-3-((2-aminoacetamido)methyl)-6-boronohexanoic acid] showed a bioavailability in series [1] (plasma) of 6.4%. For the same compound, in series [1] (setting [5]), the clearance stood at 8.4 mL/min/kg and the Vd amounted to 0.2 L/kg. In series [1] (setting [6]), the AUC was 2.9 µM·h, the Cmax stood at 880 nM and the Tmax is 105 min. Moreover, in series [2], the IC50 came to 22 nM. In addition, the IC50 in series [3] was 65 nM.

For the compound `CC[C@H](N)C(=O)NC[C@H](CCCB(O)O)[C@H](N)C(=O)O` [Example 21, (2S,3S)-2-amino-3-(((S)-2-aminobutanamido)methyl)-6-boronohexanoic acid], the bioavailability in series [1] (plasma) was 1.5%. Also, in series [1] (setting [5]), the clearance stood at 14.1 mL/min/kg and the Vd is 0.22 L/kg. In series [1] (setting [6]), the AUC came out at 0.35 µM·h, the highest level (Cmax) was 230 nM and the Tmax was found to be 30 min. In series [2], the IC50 was 39 nM. The concentration for half-maximal inhibition (IC50) in series [3] was 61 nM.

In series [1] (plasma), `C[C@H](N)C(=O)NC[C@H](CCCB(O)O)[C@H](N)C(=O)O` [Example 20, (2S,3S)-2-amino-3-(((S)-2-aminopropanamido)methyl)-6-boronohexanoic acid] returned a bioavailability of 5.1%. In addition, in series [1] (setting [5]), the clearance turned out to be 12.5 mL/min/kg and the Vd came out at 0.21 L/kg. For the same compound, in series [1] (setting [6]), the AUC came out at 1.25 µM·h, the Cmax amounted to 440 nM and the time to peak (Tmax) was determined as 45 min. Moreover, the IC50 in series [2] is 9 nM. Further, in series [3], the IC50 is 140 nM.

As for `NC[C@H](CCCB(O)O)[C@H](N)C(=O)O` [Example 18, (2S,3S)-2-amino-3-(aminomethyl)-6-boronohexanoic acid], in series [1] (setting [4]), the clearance came to 7.3 mL/min/kg and the Vd stood at 0.38 L/kg. For the same compound, the half-maximal inhibitory concentration (IC50) in series [2] turned out to be 90 nM. For the same compound, the IC50 in series [3] came out at 220 nM.

`CC(C)[C@H](N)C(=O)NC[C@H](CCCB(O)O)[C@H](N)C(=O)O` [Example 19, (2S,3S)-2-amino-3-(((S)-2-amino-3-methylbutanamido)methyl)-6-boronohexanoic acid] had a bioavailability in series [1] (plasma) of 8.3%. In series [1] (setting [5]), the clearance worked out at 16.4 mL/min/kg and the Vd was 0.47 L/kg. For the same compound, in series [1] (setting [6]), the AUC was 1.4 µM·h, the peak concentration (Cmax) stood at 660 nM and the Tmax was 30 min. For the same compound, the IC50 in series [2] amounted to 60 nM. Besides, in series [3], the half-maximal inhibitory concentration (IC50) amounted to 110 nM.

On to `CC(C)[C@H](N)C(=O)N[C@H](C(=O)O)[C@H](CN)CCCB(O)O` [Example 26, (2S,3S)-3-(aminomethyl)-2-[[(2S)-2-amino-3-methyl-butanoyl]amino]-6-borono-hexanoic acid], for which, in series [1] (setting [5]), the clearance was found to be 26.6 mL/min/kg and the Vd is 0.15 L/kg. In addition, the IC50 in series [2] was found to be 2560 nM. In addition, the IC50 in series [3] amounted to 2030 nM.

`CC[C@H](C)[C@H](N)C(=O)NC[C@H](CCCB(O)O)[C@H](N)C(=O)O` [Example 22, (2S,3S)-2-amino-3-(((2S,3S)-2-amino-3-methylpentanamido)methyl)-6-boronohexanoic acid] gave a bioavailability in series [1] (plasma) of 4.5%. In series [1] (setting [5]), the clearance worked out at 13.1 mL/min/kg and the Vd is 0.2 L/kg. In series [1] (setting [6]), the AUC came out at 0.92 µM·h, the highest concentration (Cmax) is 450 nM and the Tmax amounted to 60 min. The IC50 in series [2] was determined as 49 nM. Further, in series [3], the IC50 worked out at 100 nM.

For the compound `C[C@H](N)C(=O)N[C@H](C(=O)O)[C@@H](CN)CCCB(O)O` [Example 14, (2S,3R)-3-(aminomethyl)-2-((S)-2-aminopropanamido)-6-boronohexanoic acid], in series [1] (setting [5]), the clearance stood at 46.1 mL/min/kg and the Vd was 0.47 L/kg. Moreover, in series [1] (setting [6]), the concentration peaked (Cmax) at 130 nM and the time to peak (Tmax) came to 15 min. Besides, in series [2], the IC50 is 2180 nM. In addition, the IC50 in series [3] stood at 3900 nM.

As to `C[C@H](N)C(=O)N[C@H](C(=O)O)[C@H](CN)CCCB(O)O` [Example 25, (2S,3S)-3-(aminomethyl)-2-[[(2S)-2-aminopropanoyl]amino]-6-borono-hexanoic acid], in series [1] (setting [5]), the clearance was determined as 28.3 mL/min/kg and the Vd was 0.18 L/kg. Moreover, in series [1] (setting [6]), the Cmax was 40 nM and the Tmax was determined as 15 min. The IC50 in series [2] was 68 nM. Also, in series [3], the IC50 was 150 nM.
